Laboratory results published in the NIST ThermoML archive (doi:10.1016/j.jct.2009.03.014).
Values joined by “and” are separate entries in the source; they are usually repeats but may differ in a detail not shown here. Equal values may be shown once.

Columns and labels:
[1] = Crystal, Calculated from knudsen effusion weight loss
[2] = molar enthalpy of vaporization or sublimation; conditions: 298.15 K, Crystal

O=[N+]([O-])c1c(Cl)cc(Cl)cc1Cl [1,3,5-trichloro-2-nitrobenzene]
Conditions	molar enthalpy, Drop-Microcalorimetry [kJ/mol]	vapor or sublimation pressure, 287.13 K	vapor or sublimation pressure, 289.15 K	vapor or sublimation pressure, 291.14 K	vapor or sublimation pressure, 293.13 K	vapor or sublimation pressure, 295.15 K	vapor or sublimation pressure, 297.15 K	vapor or sublimation pressure, 299.14 K	vapor or sublimation pressure, 301.13 K	vapor or sublimation pressure, 303.14 K
[1]	–	0.000143 kPa and 0.000137 kPa and 0.000136 kPa	0.000183 kPa and 0.000176 kPa and 0.000174 kPa	0.000231 kPa and 0.000224 kPa and 0.000217 kPa	0.000295 kPa and 0.000293 kPa and 0.000301 kPa	0.000387 kPa and 0.000371 kPa and 0.000369 kPa	0.000487 kPa and 0.000435 kPa and 0.000445 kPa	0.000651 kPa and 0.000582 kPa and 0.000577 kPa	0.0008 kPa and 0.000723 kPa and 0.000725 kPa	0.000992 kPa and 0.000924 kPa and 0.000927 kPa
[2]	84.3	–	–	–	–	–	–	–	–	–

O=[N+]([O-])c1c(Cl)c(Cl)cc(Cl)c1Cl [2,3,5,6-tetrachloronitrobenzene]
Conditions	molar enthalpy [kJ/mol]
[2], Drop Microcalorimetry	91.3

O=[N+]([O-])c1c(Cl)c(Cl)c(Cl)c(Cl)c1Cl [pentachloronitrobenzene]
Conditions	molar enthalpy [kJ/mol]	vapor or sublimation pressure
[1], 317.11 K	–	0.000102 kPa and 0.000101 kPa
[1], 319.18 K	–	0.000129 kPa and 0.000127 kPa and 0.000124 kPa
[1], 321.2 K	–	0.00015 kPa and 0.000155 kPa and 0.000154 kPa
[1], 323.11 K	–	0.000197 kPa and 0.000196 kPa and 0.000199 kPa
[1], 325.18 K	–	0.000246 kPa and 0.000245 kPa and 0.000241 kPa
[1], 327.2 K	–	0.000289 kPa and 0.000296 kPa and 0.000292 kPa
[1], 329.11 K	–	0.000372 kPa and 0.000367 kPa and 0.000366 kPa
[1], 331.17 K	–	0.000462 kPa and 0.000453 kPa and 0.000447 kPa
[1], 333.2 K	–	0.000531 kPa and 0.000549 kPa and 0.00054 kPa
[1], 335.11 K	–	0.000692 kPa and 0.000673 kPa and 0.000671 kPa
[1], 337.18 K	–	0.000844 kPa and 0.000833 kPa and 0.000818 kPa
[1], 339.2 K	–	0.000971 kPa and 0.001009 kPa and 0.000993 kPa
[2], Drop Microcalorimetry	96.3	–
